Strand notation (5' to 3'): a small letter for the sugar, then the base; units joined by * are phosphorothioate-linked, units joined directly phosphodiester-linked; [ ] holds rarer units or linkages, { } end groups; capitals alone tell only the bases. k = constrained ethyl (cEt); [5mC] = 5-methylcytosine; d = 2'-deoxy (DNA)

The values below come from patent publication US10517889B2, “Modulators of SMAD7 expression” (Ionis Pharmaceuticals, Inc., priority 2017, dated 2019).

This series concerns human SMAD7 mRNA. The experiment in a line: Antisense inhibition of human SMAD7 mRNA expression in Hep3B cells by 3-10-3 cEt gapmers, 10,000 nM, electroporation (Example 2). Format: cell-based. The settings on record: approximately 24 hours. A digest of the protocol:
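Hep3B, 20,000 cells/well; electroporation, 10,000 nM ASO; ~24 h. Readout: SMAD7 mRNA by qRT-PCR (RTS5062), RIBOGREEN-normalised; % inhibition vs untreated.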

The mark [1] stands for this setting: Hep3B cells, 10,000 nM antisense oligonucleotide, electroporation, RT-PCR primer probe set RTS5062, relative to untreated control cells.
Setting [2] is: SMAD7 mRNA, Hep3B cells, 10,000 nM antisense oligonucleotide, electroporation, primer probe set RTS5062, relative to untreated control cells.
Where [3] appears, read: Hep3B cells, electroporation with 10,000 nM antisense oligonucleotide, SMAD7 mRNA by RT-PCR (RTS5062), relative to untreated control cells.
Where [4] appears, read: SMAD7 mRNA, Hep3B cells, electroporation with 10,000 nM antisense oligonucleotide, primer probe set RTS5062, relative to untreated control cells.
The mark [5] stands for this setting: Hep3B cells, electroporation with 10,000 nM antisense oligonucleotide, primer probe set RTS5062, relative to untreated control cells.
Setting [6] is: Hep3B cells, electroporation, 10,000 nM antisense oligonucleotide, RTS5062, relative to untreated control cells.
The mark [7] stands for this setting: Hep3B cells, electroporation with 10,000 nM antisense oligonucleotide, RTS5062, percent inhibition of SMAD7 mRNA relative to untreated control cells.

As to “799955 (antisense k[5mC]*kG*k[5mC]*dT*d[5mC]*dA*dG*dA*dA*dA*dA*dT*dG*k[5mC]*k[5mC]*k[5mC]) [compound 799955]”, the “% Inhibition” value under setting [1] was 50%. Regarding “772762 (kA*kT*kT*dT*dT*dG*d[5mC]*dT*dA*d[5mC]*d[5mC]*dT*dA*kA*kT*kG; antisense) [compound 772762]”, the “% Inhibition” value under setting [2] is recorded as 11%. As to “830057 (k[5mC]*kG*kT*dT*dT*dT*dG*dG*dG*dT*dG*dA*dG*kT*kA*kA; antisense) [compound 830057]”, the “% Inhibition” value under setting [3] is 42%. On the same count and under the same terms, the figure for “799907 (antisense kA*kG*kT*dA*dA*dA*dG*dG*dG*d[5mC]*d[5mC]*dT*d[5mC]*kT*k[5mC]*kT) [compound 799907]” is 10%. On to “829852 (antisense kT*k[5mC]*kT*dT*dG*dT*dT*dG*dT*d[5mC]*d[5mC]*dG*dA*kA*kT*kT) [compound 829852]”, for which the “% Inhibition” value under setting [4] was 33%.

Turning to “799894 (antisense kT*k[5mC]*k[5mC]*d[5mC]*dA*dA*d[5mC]*dT*dG*dG*dG*d[5mC]*dA*kG*k[5mC]*kT) [compound 799894]”, the “% Inhibition” value under setting [1] is 2%. For the substance “799898 (antisense kG*kT*k[5mC]*dT*d[5mC]*dT*dT*dA*d[5mC]*d[5mC]*dT*d[5mC]*dA*k[5mC]*k[5mC]*k[5mC]) [compound 799898]”, the “% Inhibition” value under setting [1] was 37%. For the substance “829797 (kG*kG*kT*dT*dG*dA*dT*d[5mC]*dT*dT*d[5mC]*d[5mC]*d[5mC]*kG*kT*kA; antisense) [compound 829797]”, under setting [4], the “% Inhibition” value is 54%. On to “799267 (antisense kG*kT*kT*d[5mC]*dG*dG*d[5mC]*d[5mC]*dT*dT*d[5mC]*d[5mC]*dA*kT*k[5mC]*k[5mC]) [compound 799267]”, for which the “% inhibition of SMAD7 mRNA expression” value under setting [5] amounted to 62%. With “799304 (antisense kG*kA*kA*dA*dG*dA*d[5mC]*dA*dA*dA*d[5mC]*d[5mC]*dA*k[5mC]*kA*k[5mC]) [compound 799304]”, the “% inhibition of SMAD7 mRNA expression” value under setting [6] turned out to be 54%. On to “829738 (antisense kT*kA*kA*dG*dG*dA*dG*d[5mC]*dG*dA*dA*d[5mC]*dA*kT*kG*kA) [compound 829738]”, for which the “% Inhibition” value under setting [2] is on record as 49%. Regarding “799945 (antisense kA*kG*k[5mC]*dT*dT*dT*dT*dA*dG*dA*dG*d[5mC]*dT*kG*k[5mC]*kG) [compound 799945]”, the “% Inhibition” value under setting [3] is on record as 5%.

Turning to “829718 (antisense k[5mC]*k[5mC]*kA*dG*dT*d[5mC]*dT*d[5mC]*d[5mC]*d[5mC]*dG*dG*dA*kG*kG*k[5mC]) [compound 829718]”, the “% Inhibition” value under setting [2] is on record as 15%. As to “799140 (antisense kT*kG*kA*d[5mC]*dG*dG*dA*d[5mC]*d[5mC]*dA*dA*dA*dT*k[5mC]*k[5mC]*kT) [compound 799140]”, under setting [5], the “% Inhibition” value is 60%. Same read-out and setting: the figure for “799191 (antisense kA*kT*kG*dA*dG*dA*dA*dT*dG*d[5mC]*dT*dT*d[5mC]*kT*k[5mC]*kT) [compound 799191]” is 26%.

Consider “829751 (antisense kG*k[5mC]*kA*dG*d[5mC]*dT*d[5mC]*dG*d[5mC]*d[5mC]*dT*d[5mC]*d[5mC]*kT*k[5mC]*k[5mC]) [compound 829751]”, for which the “% Inhibition” value under setting [2] is on record as 40%. Regarding “799083 (antisense kG*kG*kA*dA*dG*d[5mC]*d[5mC]*d[5mC]*dA*dT*d[5mC]*dT*d[5mC]*kA*kG*kG) [compound 799083]”, under setting [5], the “% inhibition of SMAD7 mRNA expression” value turned out to be 0%.

Turning to “798870 (kG*kG*kG*dA*dA*d[5mC]*dA*d[5mC]*d[5mC]*dT*dT*dG*dT*kG*kT*kA; antisense) [compound 798870]”, the “% Inhibition” value under setting [3] is on record as 14%. With “798869 (kA*kA*k[5mC]*dA*d[5mC]*d[5mC]*dT*dT*dG*dT*dG*dT*dA*k[5mC]*k[5mC]*kA; antisense) [compound 798869]”, the “% Inhibition” value under setting [3] was found to be 41%. As to “799372 (antisense k[5mC]*k[5mC]*k[5mC]*dA*dT*d[5mC]*dT*dA*dT*d[5mC]*dG*dA*dA*kT*k[5mC]*kA) [compound 799372]”, under setting [3], the “% Inhibition” value is on record as 67%.

Take “829855 (antisense kA*kG*k[5mC]*dT*dG*dA*d[5mC]*dT*d[5mC]*dT*dT*dG*dT*kT*kG*kT) [compound 829855]”: under setting [4], the “% Inhibition” value was determined as 0%. In the case of “798658 (kA*k[5mC]*k[5mC]*d[5mC]*d[5mC]*dG*d[5mC]*dG*d[5mC]*dG*dG*d[5mC]*d[5mC]*k[5mC]*kG*k[5mC]; antisense) [compound 798658]”, under setting [5], the “% inhibition of SMAD7 mRNA expression” value stood at 71%.

For “799389 (antisense kA*kA*kA*dA*d[5mC]*dG*d[5mC]*dA*dG*dG*dA*dG*dG*k[5mC]*kG*kG) [compound 799389]”, under setting [3], the “% Inhibition” value is on record as 27%. Regarding “799311 (antisense k[5mC]*kT*kT*dT*dA*dA*dG*d[5mC]*dA*d[5mC]*dG*d[5mC]*dT*k[5mC]*kT*kA) [compound 799311]”, the “% Inhibition” value under setting [7] worked out at 27%. On to “829802 (kT*kT*k[5mC]*dG*d[5mC]*dA*dG*dA*dG*dT*d[5mC]*dG*dG*k[5mC]*kT*kA; antisense) [compound 829802]”, for which the “% Inhibition” value under setting [4] is 28%. Regarding “799979 (kA*kA*k[5mC]*dG*dG*dT*dT*dG*d[5mC]*d[5mC]*dT*d[5mC]*dA*kT*k[5mC]*k[5mC]; antisense) [compound 799979]”, under setting [1], the “% Inhibition” value amounted to 38%. On to “790491 (kG*kT*kA*dA*dG*dA*dT*dT*d[5mC]*dA*d[5mC]*dA*dG*k[5mC]*kA*kA; antisense) [compound 790491]”, for which the “% Inhibition” value under setting [2] turned out to be 56%. “799992 (kG*kG*k[5mC]*dA*d[5mC]*dG*dG*d[5mC]*d[5mC]*dG*d[5mC]*d[5mC]*dT*k[5mC]*k[5mC]*kT; antisense) [compound 799992]”: the “% Inhibition” value under setting [1] is reported as 9%. As for “829981 (kG*kT*kG*dA*dT*dT*dG*d[5mC]*d[5mC]*dT*dT*dG*dA*kT*kA*kT; antisense) [compound 829981]”, the “% Inhibition” value under setting [4] turned out to be 14%.

In the case of “830050 (kA*kG*kT*dT*dT*d[5mC]*d[5mC]*dG*dA*dT*dT*dG*dG*k[5mC]*kA*kG; antisense) [compound 830050]”, the “% Inhibition” value under setting [3] came to 39%. On to “799530 (kG*k[5mC]*kT*d[5mC]*dA*dA*dT*dG*dA*dG*dA*d[5mC]*dT*kG*kG*k[5mC]; antisense) [compound 799530]”, for which the “% Inhibition” value under setting [7] worked out at 34%. With “799698 (antisense kT*kA*kA*dT*dA*dG*dT*dT*dT*dT*d[5mC]*dT*d[5mC]*kT*k[5mC]*kA) [compound 799698]”, the “% inhibition of SMAD7 mRNA expression” value under setting [6] came out at 33%. On the same count and under the same terms, the figure for “799303 (antisense kG*kA*k[5mC]*dA*dA*dA*d[5mC]*d[5mC]*dA*d[5mC]*dA*d[5mC]*dA*kT*kT*k[5mC]) [compound 799303]” is 73%.

Consider “799226 (kA*kA*kA*dA*d[5mC]*dA*d[5mC]*d[5mC]*dA*dA*dT*d[5mC]*dT*kT*kG*kT; antisense) [compound 799226]”, for which, under setting [5], the “% Inhibition” value worked out at 15%. With “830118 (kT*k[5mC]*k[5mC]*d[5mC]*dA*d[5mC]*d[5mC]*d[5mC]*dT*dA*dA*dA*d[5mC]*kT*kG*kA; antisense) [compound 830118]”, under setting [3], the “% Inhibition” value worked out at 0%.

For “799068 (antisense kG*kA*k[5mC]*dA*dA*dG*dG*dA*dT*dG*dA*dA*dA*kA*kT*kA) [compound 799068]”, the “% inhibition of SMAD7 mRNA expression” value under setting [5] is given as 49%.

For the substance “772700 (k[5mC]*kT*kT*dT*dA*dA*dT*dA*dA*dA*dT*d[5mC]*dT*k[5mC]*kA*kG; antisense) [compound 772700]”, the “% Inhibition” value under setting [5] is 24%.
